Results taken from the supplement of paper PMC10307832.

Legend:
Assay in all cases: relative viability (nuclei count vs DMSO), 5 days (fraction); higher = more cells survive
Palbociclib + Dasatinib = compound: CC(=O)c1c(C)c2cnc(Nc3ccc(N4CCNCC4)cn3)nc2n(C2CCCC2)c1=O [Palbociclib] + Cc1nc(Nc2ncc(C(=O)Nc3c(C)cccc3Cl)s2)cc(N2CCN(CCO)CC2)n1 [Dasatinib] (partner 0.075 µM)
In short: (§1)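 Values are medians from duplicate plates. Each reflects relative viability, defined as the nuclei count of treated wells over that of vehicle wells. Lung cancer cell lines in 1536-well plates were pin-tool dosed one day after seeding with one drug alone or with a fixed anchor-drug dose plus five library-drug doses (not always all listed) in √10 steps, then fixed, stained and imaged at 4× after 5 days.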

Palbociclib + Olaparib = compound: CC(=O)c1c(C)c2cnc(Nc3ccc(N4CCNCC4)cn3)nc2n(C2CCCC2)c1=O [Palbociclib] + O=C(c1cc(Cc2n[nH]c(=O)c3ccccc23)ccc1F)N1CCN(C(=O)C2CC2)CC1 [Olaparib] (partner 8 µM)
In short: as §1

Palbociclib + Luminespib = compound: CC(=O)c1c(C)c2cnc(Nc3ccc(N4CCNCC4)cn3)nc2n(C2CCCC2)c1=O [Palbociclib] + CCNC(=O)c1noc(-c2cc(C(C)C)c(O)cc2O)c1-c1ccc(CN2CCOCC2)cc1 [Luminespib] (partner 0.01 µM)
In short: as §1

Palbociclib + Decitabine = compound: CC(=O)c1c(C)c2cnc(Nc3ccc(N4CCNCC4)cn3)nc2n(C2CCCC2)c1=O [Palbociclib] + Nc1ncn([C@H]2C[C@H](O)[C@@H](CO)O2)c(=O)n1 [Decitabine] (partner 2 µM)
In short: as §1

Cell Line	relative viability (Palbociclib + Dasatinib; first compound 0.01 µM)	relative viability (Palbociclib + Dasatinib; first compound 0.03162 µM)	relative viability (Palbociclib + Dasatinib; first compound 0.1 µM)	relative viability (Palbociclib + Dasatinib; first compound 0.3162 µM)	relative viability (Palbociclib + Dasatinib; first compound 1 µM)	relative viability (Palbociclib + Olaparib; first compound 0.01 µM)	relative viability (Palbociclib + Olaparib; first compound 0.03162 µM)	relative viability (Palbociclib + Olaparib; first compound 0.1 µM)	relative viability (Palbociclib + Olaparib; first compound 0.3162 µM)	relative viability (Palbociclib + Olaparib; first compound 1 µM)	relative viability (Palbociclib + Luminespib; first compound 0.01 µM)	relative viability (Palbociclib + Luminespib; first compound 0.03162 µM)	relative viability (Palbociclib + Luminespib; first compound 0.1 µM)	relative viability (Palbociclib + Luminespib; first compound 0.3162 µM)	relative viability (Palbociclib + Luminespib; first compound 1 µM)	relative viability (Palbociclib + Decitabine; first compound 0.01 µM)	relative viability (Palbociclib + Decitabine; first compound 0.03162 µM)	relative viability (Palbociclib + Decitabine; first compound 0.1 µM)	relative viability (Palbociclib + Decitabine; first compound 0.3162 µM)	relative viability (Palbociclib + Decitabine; first compound 1 µM)
HCC-827	0.296	0.234	0.311	0.264	0.288	0.62	0.573	0.477	0.563	0.443	0.398	0.539	0.582	0.609	0.532	0.369	0.294	0.289	0.314	0.265
NCI-H647	0.177	0.142	0.143	0.163	0.139	0.809	0.488	0.502	0.513	0.442	0.0934	0.13	0.137	0.209	0.253	0.408	0.315	0.356	0.392	0.337
NCI-H441	0.518	0.525	0.522	0.362	0.221	0.657	0.449	0.45	0.452	0.298	0.317	0.371	0.38	0.26	0.229	0.22	0.244	0.241	0.241	0.236
NCI-H520	0.206	0.458	0.142	0.153	0.171	0.289	0.35	0.255	0.199	0.173	0.203	0.214	0.225	0.216	0.222	0.491	0.417	0.423	0.395	0.29
EPLC-272H	0.328		0.345	0.249	0.198	0.779	0.807	0.681	0.615	0.313	0.225		0.346	0.518	0.379	0.4		0.322	0.309	0.324
NCI-H1792	0.848	0.727	0.63	0.551	0.468	0.476	0.266	0.384	0.348	0.222	0.558	0.498	0.288	0.327	0.371	0.567	0.432	0.597	0.469	0.389
NCI-H650	0.516	0.328	0.355	0.398	0.289	0.44		0.318	0.354	0.246	0.921	0.613	0.629	0.793	0.609	0.305		0.31	0.306	0.354
HARA	0.27		0.24	0.193	0.149	0.673	0.596	0.524	0.852	0.344	0.65		0.447	0.514	0.28	0.699	0.474	0.418	0.319	0.449
LK-2	0.356		0.305	0.301	0.321	0.896	0.656	0.625	0.585	0.556	0.208		0.166	0.191	0.158	0.299	0.213	0.333	0.324	0.283
NCI-H1975	0.373	0.347	0.323	0.322	0.297	0.859	0.762	0.737	0.623	0.61	0.161	0.189	0.102	0.198	0.193	0.413	0.429	0.412	0.399	0.365
NCI-H2023	0.536	0.488	0.351	0.453	0.246	0.467	0.478	0.402	0.374	0.262	0.723	0.532	0.515	0.551	0.343	0.225	0.189	0.254	0.272	0.251
NCI-H661	0.901	0.793	0.476	0.533	0.435	0.731	0.636	0.583	0.467	0.44	0.868	0.789	0.597	0.523	0.416	0.547	0.484	0.476	0.461	0.39
NCI-H2170	0.488	0.515	0.549	0.534	0.521	0.675	0.61	0.551	0.488	0.436	0.536	0.536	0.558	0.707	0.536	0.503	0.478	0.446	0.477	0.45
NCI-H1651	0.394	0.366	0.352	0.385	0.308	0.177	0.196	0.225	0.203	0.206	0.872	0.814	0.774	0.791	0.677	0.636	0.535	0.636	0.555	0.451
NCI-H1944	0.211	0.162	0.193	0.19	0.147	0.411	0.397	0.404	0.341	0.339	0.683	0.742	0.626	0.666	0.516	0.45	0.426	0.447	0.438	0.431
NCI-H1437	0.382	0.344	0.425	0.34	0.231	0.64	0.599	0.564	0.489	0.369	1.16	1.07	0.961	0.89	0.666	0.582	0.551	0.569	0.494	0.408
EKVX	0.467	0.444	0.502	0.455	0.372	0.915		0.647	0.608	0.438	0.856	0.745	0.919	0.841	0.605	0.383		0.281	0.307	0.293

Cell Line	relative viability (Palbociclib + Dasatinib; first compound 0.01 µM)	relative viability (Palbociclib + Dasatinib; first compound 0.03162 µM)	relative viability (Palbociclib + Dasatinib; first compound 0.1 µM)	relative viability (Palbociclib + Dasatinib; first compound 0.3162 µM)	relative viability (Palbociclib + Dasatinib; first compound 1 µM)	relative viability (Palbociclib + Olaparib; first compound 0.01 µM)	relative viability (Palbociclib + Olaparib; first compound 0.03162 µM)	relative viability (Palbociclib + Olaparib; first compound 0.1 µM)	relative viability (Palbociclib + Olaparib; first compound 0.3162 µM)	relative viability (Palbociclib + Olaparib; first compound 1 µM)	relative viability (Palbociclib + Luminespib; first compound 0.01 µM)	relative viability (Palbociclib + Luminespib; first compound 0.03162 µM)	relative viability (Palbociclib + Luminespib; first compound 0.1 µM)	relative viability (Palbociclib + Luminespib; first compound 0.3162 µM)	relative viability (Palbociclib + Luminespib; first compound 1 µM)	relative viability (Palbociclib + Decitabine; first compound 0.01 µM)	relative viability (Palbociclib + Decitabine; first compound 0.03162 µM)	relative viability (Palbociclib + Decitabine; first compound 0.1 µM)	relative viability (Palbociclib + Decitabine; first compound 0.3162 µM)	relative viability (Palbociclib + Decitabine; first compound 1 µM)
NCI-H2347	0.341		0.266	0.247	0.245	0.606	0.549	0.564	0.51	0.49	0.41		0.366	0.429	0.453	0.597	0.656	0.599	0.585	0.504
SK-MES-1	0.346	0.358	0.165	0.129	0.188	0.695	0.57	0.446	0.343	0.205	0.755	0.462	0.587	0.42	0.376	0.354	0.377	0.404	0.357	0.263
H3255	0.347	0.386	0.338	0.322	0.277	0.646	0.547	0.458	0.493	0.373	0.925	0.91	0.65	0.587	0.464	0.733	0.514	0.522	0.525	0.384
NCI-H1395	0.399	0.382	0.345	0.325	0.333	0.429	0.423	0.421	0.477	0.514	0.661	0.561	0.631	0.668	0.587	0.741	0.704	0.656	0.702	0.641
NCI-H2405	0.207	0.212	0.226	0.212	0.208	0.842	0.841	0.765	0.682	0.527	0.818	0.893	0.613	0.843	0.534	0.781	0.808	0.691	0.64	0.605
UMC-11	0.491	0.395	0.346	0.328	0.232	0.332	0.375	0.341	0.298	0.136	1.04	0.819	0.69	0.452	0.285	0.696	0.624	0.363	0.48	0.336
LCLC-97TM1	0.694	0.572	0.738	0.585	0.329	0.326		0.308	0.311	0.262	0.666	0.702	0.684	0.486	0.281	0.23		0.231	0.239	0.198
NCI-H322M	0.278	0.216	0.207	0.209	0.198	0.762	0.709	0.702	0.599	0.445	0.699	0.729	0.647	0.657	0.475	0.691	0.654	0.674	0.654	0.521
NCI-H1355	0.774	0.587	0.588	0.569	0.384	0.796	0.734	0.673	0.65	0.621	0.74	0.776	0.811	0.568	0.521	0.348	0.379	0.352	0.351	0.342
COR-L23	0.575	0.431	0.241	0.334	0.2	0.312	0.271	0.233	0.194	0.175	0.647	0.515	0.511	0.429	0.434	0.414	0.369	0.322	0.363	0.33
ChaGo-K-1	0.545	0.539	0.615	0.594	0.593	0.423		0.437	0.467	0.444	0.532	0.575	0.893	0.689	0.62	0.517		0.554	0.522	0.518
NCI-H1915	0.293	0.247	0.28	0.247	0.245	0.244		0.257	0.258	0.244	0.807	0.674	0.793	0.71	0.629	0.277		0.254	0.254	0.26
NCI-H1650	0.29	0.287	0.275	0.275	0.208	0.795	0.562	0.551	0.642	0.513	0.178	0.211	0.186	0.186	0.172	0.414	0.427	0.474	0.421	0.349
NCI-H2126	0.574	0.449	0.355	0.387	0.27	0.972	0.833	0.698	0.719	0.526	0.869	0.79	0.564	0.535	0.369	0.637	0.568	0.492	0.539	0.463
LCLC-103H	0.44	0.331	0.452	0.367	0.307	0.701	0.709	0.731	0.669	0.584	0.978	0.808	0.848	0.718	0.584	0.675	0.76	0.674	0.679	0.627
HCC-15	0.622		0.516	0.598	0.439	0.788		0.626	0.651	0.598	0.267		0.378	0.502	0.418	0.662		0.535	0.523	0.498
